Source: patent publication US11866641B2, “Method for fracking subterranean geological formation with surfactant-containing fluid” (KING FAHD UNIVERSITY OF PETROLEUM AND MINERALS, priority 2019, dated 2024)
Entries after “also recorded” stand apart in the source; their conditions may differ.

Assays:
Format in all cases: physicochemical
[1] = Surface tension, force tensiometer with Wilhelmy plate; conditions: water
Experimental: Surface activities of OPAC, OPAS, and OPAH were determined using a force tensiometer with a platinum Wilhelmy plate (Sigma 702, Biolin Scientific). The test temperatures were 30° C. and 60° C. The plate was flushed with deionized water before heating it red hot to ensure it was properly cleaned. The surface tension of deionized water was measured three times to check if the cleanup procedure yielded repeatable results. The samples were covered to minimize evaporation, but with enough space to let the plate go through the covering during the measurement.
The surface tension data was used to estimate other properties using the following equations:
[formula] [formula] [formula] where cmc is critical micelle concentration, γ0 represents surface tension of water without surfactant, γcmc is surface tension at cmc, πcmc Represents the ability of the surfactant to reduce the surface tension, rmax is the maximum surface access, Avogadro number is represented by NA, dγ/dlnC is the slope, C represents the concentration of surfactant, temperature, and gas constant are represented by T and R, respectively, Amin is the minimum area per molecule, and the values of n is 1 for zwitterionic surfactants. Synthesis

[2] = Thermogravimetric analysis (TGA), thermal stability; conditions: 20° C./min, nitrogen; for Thermal stability by TGA, stable up to: 30-500° C.
Experimental: TGA graph was obtained using SDT Q600 machine (TA instrument) with continuous heating at 20° C./min. The heating range 30-500° C. with a stable flow of nitrogen at 100 mL/min.

[3] = Salt tolerance / solubility of surfactant solutions in DW, SW and FW; conditions: for Solubility and salt tolerance in DW, SW and FW: 10 wt % solutions in DW; for Solubility and salt tolerance in DW, SW and FW / Precipitation or phase separation of solutions in FW, SW and DW / Precipitation or phase separation in formation water (FIG. 5) / Precipitation or phase separation in seawater (FIG. 4): 90 days at 90° C.; for Solubility in simulated SW and FW: up to 90 days at 90° C.
Experimental: 10 wt % solutions of OPAC, OPAS, and OPAH were prepared in DW, SW, and FW and kept in the oven for 90 days at 90° C.

Amin (minimum area per molecule) ([1]; 30° C.) [nm^2] | cmc ([1]; 30° C.) [mol/L] | Γmax × 10^6 (maximum surface excess) ([1]; 30° C.) [mol m^−2] | γcmc (surface tension at cmc) ([1]; 30° C.) [mN m^−1] | πcmc (ability to reduce the surface tension) ([1]; 30° C.) [mN/m] | Amin (minimum area per molecule) ([1]; 60° C.) [nm^2] | cmc ([1]; 60° C.) [mol/L] | Γmax × 10^6 (maximum surface excess) ([1]; 60° C.) [mol m^−2] | γcmc (surface tension at cmc) ([1]; 60° C.) [mN m^−1] | πcmc (ability to reduce the surface tension) ([1]; 60° C.) [mN/m] | Thermal stability by TGA, stable up to [2] [°C] | Initial loss in weight (TGA; associated with water and solvent) [2] [%] | Temperature of big weight loss / decomposition temperature (TGA) [2] [°C] | Substance | Solubility and salt tolerance in DW, SW and FW [3] | Precipitation or phase separation of solutions in FW, SW and DW [3] | Precipitation or phase separation in formation water (FIG. 5) [3] | Precipitation or phase separation in seawater (FIG. 4) [3] | Solubility in simulated SW and FW [3]
0.62 | 7.1e-05 | 2.66 | 36.89 | 34.96 | 0.71 | 3.35e-05 | 2.33 | 33.68 | 38.07 | ~300 | 29 | 307 | Oleyl Polyoxyethylene Amidopropyl Hydroxy Sulfobetaine [OPAH] | compatible and soluble with all kinds of water; also recorded: excellent solubility | no precipitation or phase separation was detected | no signs of precipitation or phase separation | no signs of precipitation or phase separation | soluble
0.77 | 3.66e-05 | 2.15 | 37.04 | 35.59 | 1.01 | 3.41e-05 | 1.64 | 33.74 | 38.26 | ~300 | 25 | 295 | Oleyl Polyoxyethylene Amidopropyl Sulfobetaine [OPAS] | compatible and soluble with all kinds of water; also recorded: excellent solubility | no precipitation or phase separation was detected | no signs of precipitation or phase separation | no signs of precipitation or phase separation | soluble
0.97 | 0.000346 | 1.70 | 34.67 | 37.33 | 1.04 | 9.7e-05 | 1.58 | 32.24 | 39.76 | ~300 | 30 | 312 | Oleyl Polyoxyethylene Amindopropyl Carboxybetaine [OPAC] | compatible and soluble with all kinds of water; also recorded: excellent solubility | no precipitation or phase separation was detected | no signs of precipitation or phase separation | no signs of precipitation or phase separation | soluble
